The values below come from ChEMBL document CHEMBL6074662, “Antibacterial, Antibiofilm, and Anti-inflammatory Effects of a Novel Thrombin-Derived Peptide in Sepsis Models: Insights into Underlying Mechanisms” (J Med Chem, 2024).

Series [1] relates to Staphylococcus aureus. The series is described as follows: Bactericidal activity against methicillin-resistant Staphylococcus aureus CCARM 3089 at 0.5 to 2 uM incubated for 12 hrs by time-kill assay. It is filed as functional, organism-based. The conditions noted are these: dose 0.5-2 µM.
In series [2] the test system is Staphylococcus aureus. Kind of series: Synergistic bactericidal activity against methicillin-resistant Staphylococcus aureus CCARM 3089 at 0.5 to 2 uM incubated for 12 hrs in presence of oxacillin by time-kill assay. The note with it: dose 0.5-2 µM. It is filed as functional, organism-based.
A short description of series [3]: Proteolytic stability of compound assessed as trypsin (unknown origin)-mediated drug degradation at 150 uM incubated for 24 hrs by RP-HPLC analysis. It is filed as ADME. The note with it: human.
A further series concerns Escherichia coli. Kind of series: Antibacterial activity against Escherichia coli KCTC 1682 assessed as zone of clearance incubated for 4 hrs in presence of proteinase K by radical diffusion assay. It is filed as functional, organism-based.
Series [4] in a line: Effect on secondary structure of drug in SDS assessed as formation of left-handed alpha-helical conformation at 150 uM by CD analysis. It is filed as physicochemical.
The test system of a further series is Acinetobacter baumannii. The series is described as follows: Antibacterial activity against carbapenem-resistant Acinetobacter baumannii-induced sepsis shock in ICR mouse model assessed as bacterial growth inhibition in kidney at 1 mg/kg, ip pretreated with compound for 1 hr followed by bacterial infection measured after 16 hrs relative to control. The note with it: time 17 hrs. It is filed as functional.

For series [5], the system named is Mus musculus. The series is described as follows: Antiseptic activity in sepsis shock ICR mouse model infected with carbapenem-resistant Acinetobacter baumannii assessed as recovery of neutrophil infiltration in lungs at 1 mg/kg, ip pretreated with compound for 1 hr followed by bacterial infection measured after 16 hrs by H and E staining based analysis. It is filed as functional, organism-based. The conditions noted are these: time 17.0 hrs.

Series [6] addresses T1, Toll-like receptor 4 (Mus musculus) (UniProt Q9QUK6).
T1 sequence (whole entry): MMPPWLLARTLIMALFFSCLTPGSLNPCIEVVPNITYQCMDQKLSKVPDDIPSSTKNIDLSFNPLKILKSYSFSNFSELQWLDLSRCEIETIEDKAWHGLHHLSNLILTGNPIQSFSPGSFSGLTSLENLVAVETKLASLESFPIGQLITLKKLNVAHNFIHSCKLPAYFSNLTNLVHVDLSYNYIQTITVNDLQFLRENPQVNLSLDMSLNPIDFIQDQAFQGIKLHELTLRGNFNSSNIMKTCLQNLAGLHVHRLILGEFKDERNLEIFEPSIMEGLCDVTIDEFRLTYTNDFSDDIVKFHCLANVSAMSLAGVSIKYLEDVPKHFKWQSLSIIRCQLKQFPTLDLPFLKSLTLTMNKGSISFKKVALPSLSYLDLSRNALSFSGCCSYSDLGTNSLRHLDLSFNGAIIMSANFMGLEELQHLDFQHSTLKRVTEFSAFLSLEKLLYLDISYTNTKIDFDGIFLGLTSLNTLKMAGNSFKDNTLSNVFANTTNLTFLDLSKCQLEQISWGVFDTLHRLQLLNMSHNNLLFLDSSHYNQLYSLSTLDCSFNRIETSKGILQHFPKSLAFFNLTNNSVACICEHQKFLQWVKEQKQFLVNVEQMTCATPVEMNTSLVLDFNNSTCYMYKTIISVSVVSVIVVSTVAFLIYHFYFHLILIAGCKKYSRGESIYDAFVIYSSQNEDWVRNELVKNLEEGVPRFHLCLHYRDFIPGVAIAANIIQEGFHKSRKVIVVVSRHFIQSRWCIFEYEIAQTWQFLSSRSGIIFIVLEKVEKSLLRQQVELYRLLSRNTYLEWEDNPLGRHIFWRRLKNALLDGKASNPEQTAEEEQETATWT
The series is described as follows: Inhibition of LPS-induced TLR4 activation in mouse RAW264.7 cells assessed as decrease in ERK phosphorylation at 2 uM pretreated for 1 hr followed by LPS treatment for 30 mins by Western blot analysis relative to control. It is filed as cell-based. The note with it: time 90.0 min. (In general: A western blot detects proteins with antibodies after separation by electrophoresis.)

In a further series the test system is Pseudomonas aeruginosa. The series is described as follows: Bactericidal activity against multidrug-resistant Pseudomonas aeruginosa CCARM 2095 at 0.5 to 2 uM incubated for 12 hrs by time-kill assay. The note with it: dose 0.5-2 µM. It is filed as functional, organism-based.
Series [7] is described as follows: Effect on secondary structure of drug in TFE assessed as formation of left-handed alpha-helical conformation at 150 uM by CD analysis. It is filed as physicochemical.
Series [8] relates to Mus musculus. Kind of series: Antiseptic activity in sepsis shock ICR mouse model infected with carbapenem-resistant Acinetobacter baumannii assessed as reduction in serum IL-6 level at 1 mg/kg, ip pretreated with compound for 1 hr followed by bacterial infection measured after 16 hrs relative to control. It is filed as functional. The note with it: time 17 hrs. On the set-up: scale not given: the % may be the effect or the level left.

The test system of series [9] is Lipopolysaccharide (LPS). Kind of series: Displacement of BODIPY-TR-cadaverine from cell-free LPS (unknown origin) incubated for 30 mins by fluorescence based assay. The conditions noted are these: dose <= 32.0 µM.
The subject of series [10] is Mus musculus. Kind of series: Antiseptic activity in sepsis shock ICR mouse model infected with carbapenem-resistant Acinetobacter baumannii assessed as reduction in bacterial count in kidney at 1 mg/kg, ip pre-infected with bacteria followed by compound administration 1 hr post-infection measured after 16 hrs relative to control. It is filed as functional. Also noted: scale not given: the % may be the effect or the level left.

Series [11] relates to Mus musculus. The series is described as follows: Antiseptic activity in sepsis shock ICR mouse model infected with carbapenem-resistant Acinetobacter baumannii assessed as reduction in bacterial count in kidney at 1 mg/kg, ip pre-infected with bacteria followed by compound administration 3 hrs post-infection measured after 16 hrs relative to control. It is filed as functional. Also noted: scale not given: the % may be the effect or the level left.

For the next series, the system named is RAW264.7. Kind of series: Inhibition of cell binding activity of FITC-labeled LPS to surface receptors of mouse RAW264.7 cells at 8 uM incubated for 1 hr by flow cytometry. It is filed as cell-based.
Series [12] relates to Mus musculus. Kind of series: Antiseptic activity in sepsis shock ICR mouse model infected with carbapenem-resistant Acinetobacter baumannii assessed as reduction in serum IL-6 level at 1 mg/kg, ip pre-infected with bacteria followed by compound administration 1 hr post-infection measured after 16 hrs relative to control. It is filed as functional. Also noted: scale not given: the % may be the effect or the level left.

The subject of series [13] is Lipopolysaccharide (LPS). The series is described as follows: Displacement of BODIPY-TR-cadaverine from Escherichia coli 0111:B4 LPS incubated for 30 mins by fluorescence based assay. The conditions noted are these: dose <= 32.0 µM.
Series [14] relates to Mus musculus. The series is described as follows: Antiseptic activity in sepsis shock ICR mouse model infected with carbapenem-resistant Acinetobacter baumannii assessed as decrease in AST level in serum at 1 mg/kg, ip pretreated with compound for 1 hr followed by bacterial infection measured after 16 hrs relative to control. It is filed as functional. Also noted: scale not given: the % may be the effect or the level left. The conditions noted are these: time 17 hrs.

The subject of series [15] is Mus musculus. Kind of series: Antiseptic activity in sepsis shock ICR mouse model infected with carbapenem-resistant Acinetobacter baumannii assessed as reduction in bacterial count in kidney at 1 mg/kg, ip pretreated with compound for 1 hr followed by bacterial infection measured after 16 hrs relative to control. Also noted: scale not given: the % may be the effect or the level left. The note with it: time 17 hrs. It is filed as functional.

Series [16] deals with Mus musculus. Kind of series: Antiseptic activity in sepsis shock ICR mouse model infected with carbapenem-resistant Acinetobacter baumannii assessed as decrease in endotoxin level in serum at 1 mg/kg, ip pretreated with compound for 1 hr followed by bacterial infection measured after 16 hrs relative to control. It is filed as functional. Also noted: scale not given: the % may be the effect or the level left. The note with it: time 17 hrs.

Series [17] deals with Lipopolysaccharide (LPS). Kind of series: Displacement of BODIPY-TR-cadaverine from cell-free LPS (unknown origin) at 16 uM incubated for 30 mins by fluorescence based assay relative to control.
In series [18] the test system is Mus musculus. The series is described as follows: Antiseptic activity in sepsis shock ICR mouse model infected with carbapenem-resistant Acinetobacter baumannii assessed as decrease in ALT level in serum at 1 mg/kg, ip pretreated with compound for 1 hr followed by bacterial infection measured after 16 hrs relative to control. The note with it: time 17 hrs. Also noted: scale not given: the % may be the effect or the level left. It is filed as functional.

Series [19] deals with Lipopolysaccharide (LPS). Kind of series: Displacement of BODIPY-TR-cadaverine from Escherichia coli 0111:B4 LPS at 16 uM incubated for 30 mins by fluorescence based assay relative to control.

Activity calls are given as the source filed them. The rule behind the calls is not given here.

The term inhibition in vivo denotes how much of the control response was suppressed. As usually defined, the inhibition is the relative decrease from the control value, in per cent.

As to H-GVFRLKKWIKKVIKKWGK-NH2, the outcome with Staphylococcus aureus [1] and in the series with Escherichia coli was inactive. In addition, the result with Staphylococcus aureus [2] was Active. The Stability entry in series [3] is on record as “Unstable”.
With H-GVFRLKKWLKKVKKWGK-NH2, the Activity result in series [4] is reported as “Active”; in [7], “Active”; in the series on Mus musculus [8] it was 100%; in the series with Lipopolysaccharide (LPS) [9], “Dose-dependent-effect; Activity Similar To Ll-37”; in the series with Mus musculus [10] it was 96.7%; in the series with Mus musculus [11] it was 91.8%. In addition, the Activity in the series on Mus musculus [12] is 97.9%; with Lipopolysaccharide (LPS) [13], “Dose-dependent-effect; Activity Similar To Ll-37”; in the series with Mus musculus [14] it was 31.8%; with Mus musculus [15] it was 99.6%; in the series on Mus musculus [16], >56.1%; in the series with Lipopolysaccharide (LPS) [17], 80%. Moreover, the Activity with Mus musculus [18] was 67.8%; in the series on Lipopolysaccharide (LPS) [19], 75%. In addition, the inhibition in vivo at 1 mg/kg in the series with Acinetobacter baumannii was determined as 88.1%. Moreover, the result with Mus musculus [5] was Active. Moreover, the inhibition in [6] was 27%; in the series on RAW264.7, “Active; Activity Comparable To Ll-37 And Pmb”. The outcome in the series with Pseudomonas aeruginosa was inactive.
